Test results published in patent US5977373A, “Thiadiazolyl and oxadiazolyl phenyl oxazolidinone antibacterial agents” (Pharmacia & Upjohn Company, priority 1998, dated 1999).
Converted amounts (≈) assume the structure as drawn. Values belong to the compound of their own block, whether it stands above or below them.

Legend:
Format in all cases: cell-based
S. Aureus UC ® 9213 = assay: In vitro minimum inhibitory concentration (MIC) by agar dilution, gram-positive bacteria (Table 1); details: Staphylococcus aureus, UC9213
Description: (§1) The oxazolidinone antibacterial agents of this invention have useful activity against a variety of microorganisms. The in vitro activity of compounds of this invention can be assessed by standard testing procedures such as the determination of minimum inhibitory concentration (MIC) by agar dilution as described in "Methods for Dilution Antimicrobial Susceptibility Tests for Bacteria That Grow Aerobically" (MFT) published January 1983 by the National Committee for Clinical Laboratory Standards, 771 East Lancaster Avenue, Villanova, Pa. 19084, USA. The activity of selected compounds of this invention against Staphylococcus aureus and Streptococcus pneumoniae are shown in Table 1.

S. pneumoniae UC ® 9912 = assay: as above; details: Streptococcus pneumoniae, UC9912
Description: as §1

HI 30063 = assay: MIC for a gram negative bacterial strain (Table 2); details: gram negative bacterial strain HI 30063

SMILES: CC(=O)NC[C@H]1CN(c2ccc(-c3nnc([C@H](C)N)s3)c(F)c2)C(=O)O1 [Example 55, [S-(R*,R*)]-N-[[3-[4-[5-(1-Aminoethyl)-1,3,4-thiadiazol-2-yl]-3-fluorophenyl]-2-oxo-5-oxazolidinyl]methyl]acetamide]
MIC (S. Aureus UC ® 9213): 8 µg/mL (≈ 21.1 µM) | MIC (S. pneumoniae UC ® 9912): < 0.125 µg/mL | MIC (HI 30063): 4 µg/mL (≈ 10.5 µM)

SMILES: CC(=O)OCC(=O)NCc1nnc(-c2ccc(N3C[C@H](CNC(C)=S)OC3=O)cc2F)s1 [Example 78, 2-({[5-(4-{(5S)-5-[(ethanethioylamino)methyl]-2-oxo-1,3-oxazolidin-3-yl}-2-fluorophenyl)-1,3,4-thiadiazol-2-yl]methyl}amino)-2-oxoethyl acetate]
MIC (S. Aureus UC ® 9213): 2 µg/mL | MIC (S. pneumoniae UC ® 9912): < 0.5 µg/mL | MIC (HI 30063): 4 µg/mL

SMILES: CC(=O)NC[C@H]1CN(c2ccc(-c3nnc(CCO)s3)c(F)c2)C(=O)O1 [Example 26, (S)-N-[[3-[3-Fluoro-4-[5-(2-hydroxyethyl)-1,3,4-thiadiazol-2-yl]phenyl]-2-oxo-5-oxazolidinyl]methyl]acetamide]
MIC (S. Aureus UC ® 9213): 2 µg/mL (≈ 5.26 µM) | MIC (S. pneumoniae UC ® 9912): < 0.125 µg/mL | MIC (HI 30063): 2 µg/mL (≈ 5.26 µM)

SMILES: CC(=O)NC[C@H]1CN(c2ccc(-c3nnc(CN)s3)c(F)c2)C(=O)O1 [Example 6, (S)-N-[[3-[4-[5-(Aminomethyl)-1,3,4-thiadiazol-2-yl]-3-fluorophenyl]-2-oxo-5-oxazolidinyl]methyl]acetamide]
MIC (S. Aureus UC ® 9213): 8 µg/mL (≈ 21.9 µM) | MIC (S. pneumoniae UC ® 9912): < 0.125 µg/mL | MIC (HI 30063): 2 µg/mL (≈ 5.47 µM)

SMILES: CC(=O)NC[C@H]1CN(c2ccc(-c3nnc(CC(C)O)s3)c(F)c2)C(=O)O1 (stereo partly drawn) [Example 28, (5S)-N-[[3-[3-Fluoro-4-[5-(2-hydroxypropyl)-1,3,4-thiadiazol-2-yl]phenyl]-2-oxo-5-oxazolidinyl]methyl]acetamide]
MIC (S. Aureus UC ® 9213): 2 µg/mL (≈ 5.07 µM) | MIC (S. pneumoniae UC ® 9912): 0.25 µg/mL (≈ 0.634 µM)

SMILES: CC(=O)NC[C@H]1CN(c2ccc(-c3noc(C#N)n3)c(F)c2)C(=O)O1 [Example 38, (S)-N-[[3-[4-(5-Cyano-1,2,4-oxadiazol-3-yl)-3-fluorophenyl]-2-oxo-5-oxazolidinyl]methyl]acetamide]
MIC (S. Aureus UC ® 9213): > 16 µg/mL | MIC (S. pneumoniae UC ® 9912): 2 µg/mL (≈ 5.79 µM)

SMILES: CC(=O)NC[C@H]1CN(c2ccc(-c3nnc(NC(=O)COC(C)=O)s3)c(F)c2)C(=O)O1 [Example 68, (S)-N-[5-[4-[5-[(Acetylamino)methyl]-2-oxo-3-oxazolidinyl]-2-fluorophenyl]-1,3,4-thiadiazol-2-yl]-2-(acetyloxy)acetamide]
MIC (S. Aureus UC ® 9213): 8 µg/mL (≈ 17.7 µM) | MIC (S. pneumoniae UC ® 9912): 2 µg/mL (≈ 4.43 µM)

SMILES: CCC(=O)NC[C@H]1CN(c2ccc(-c3nnc(CCOC)s3)c(F)c2)C(=O)O1 [Example 72, (S)-N-[[3-[3-Fluoro-4-[5-(2-methoxyethyl)-1,3,4-thiadiazol-2-yl]phenyl]-2-oxo-5-oxazolidinyl]methyl]propanamide]
MIC (S. Aureus UC ® 9213): 4 µg/mL (≈ 9.79 µM) | MIC (S. pneumoniae UC ® 9912): 0.25 µg/mL (≈ 0.612 µM)

SMILES: CC(=O)NC[C@H]1CN(c2ccc(-c3nnc(CCC(N)=O)s3)c(F)c2)C(=O)O1 [Example 19, (S)-5-[4-[5-[(Acetylamino)methyl]-2-oxo-3-oxazolidinyl]-2-fluorophenyl]-1,3,4-thiadiazole-2-propanamide]
MIC (S. Aureus UC ® 9213): 8 µg/mL (≈ 19.6 µM) | MIC (S. pneumoniae UC ® 9912): < 0.125 µg/mL

SMILES: CC(=O)NC[C@H]1CN(c2ccc(-c3nnc(CS(C)(=O)=O)s3)c(F)c2)C(=O)O1 [Example 69, (S)-N-[[3-[3-Fluoro-4-[5-[(methylsulfonyl)methyl]-1,3,4-thiadiazol-2-yl]phenyl]-2-oxo-5-oxazolidinyl]methyl]acetamide]
MIC (S. Aureus UC ® 9213): 4 µg/mL (≈ 9.34 µM) | MIC (S. pneumoniae UC ® 9912): < 0.5 µg/mL

SMILES: CC(=O)NC[C@H]1CN(c2ccc(-c3noc(C)n3)c(F)c2)C(=O)O1 [Example 35, (S)-N-[[3-[3-Fluoro-4-(5-methyl-1,2,4-oxadiazol-3-yl)phenyl]-2-oxo-5-oxazolidinyl]methyl]acetamide]
MIC (S. Aureus UC ® 9213): 16 µg/mL (≈ 47.9 µM) | MIC (S. pneumoniae UC ® 9912): 4 µg/mL (≈ 12 µM)

SMILES: CC(=O)NC[C@H]1CN(c2ccc(-c3nnc(CCN)s3)c(F)c2)C(=O)O1 [Example 44, (S)-N-[[3-[4-[5-(2-Aminoethyl)-1,3,4-thiadiazol-2-yl]-3-fluorophenyl]-2-oxo-5-oxazolidinyl]methyl]acetamide]
MIC (S. Aureus UC ® 9213): > 16 µg/mL | MIC (S. pneumoniae UC ® 9912): 0.25 µg/mL (≈ 0.659 µM)

SMILES: CON=C(C)CCc1nnc(-c2ccc(N3C[C@H](CNC(C)=O)OC3=O)cc2F)s1 [Example 65, (S)-N-[[3-[3-Fluoro-4-[5-[3-(methoxyimino)butyl]-1,3,4-thiadiazol-2-yl]phenyl]-2-oxo-5-oxazolidinyl]methyl]acetamide]
MIC (S. Aureus UC ® 9213): 8 µg/mL (≈ 18.4 µM) | MIC (S. pneumoniae UC ® 9912): 2 µg/mL (≈ 4.59 µM)

Further compounds by falling MIC (S. Aureus UC ® 9213), results first:

MIC (S. Aureus UC ® 9213): 2 µg/mL (≈ 5.26 µM) | MIC (S. pneumoniae UC ® 9912): 0.25 µg/mL (≈ 0.657 µM) | MIC (HI 30063): 4 µg/mL (≈ 10.5 µM)
SMILES: CC(=O)NC[C@H]1CN(c2ccc(-c3nnc([C@@H](C)O)s3)c(F)c2)C(=O)O1 [Example 52, [S-(R*,S*)]-N-[[3-[3-Fluoro-4-[5-(1-hydroxyethyl)-1,3,4-thiadiazol-2-yl]phenyl]-2-oxo-5-oxazolidinyl]methyl]acetamide]

MIC (S. Aureus UC ® 9213): 2 µg/mL (≈ 5.26 µM) | MIC (S. pneumoniae UC ® 9912): 0.25 µg/mL (≈ 0.657 µM) | MIC (HI 30063): 4 µg/mL (≈ 10.5 µM)
SMILES: CC(=O)NC[C@H]1CN(c2ccc(-c3nnc([C@H](C)O)s3)c(F)c2)C(=O)O1 [Example 51, [S-(R*,R*)]-N-[[3-[3-Fluoro-4-[5-(1-hydroxyethyl)-1,3,4-thiadiazol-2-yl]phenyl]-2-oxo-5-oxazolidinyl]methyl]acetamide]

MIC (S. Aureus UC ® 9213): 2 µg/mL (≈ 4.72 µM) | MIC (S. pneumoniae UC ® 9912): 0.25 µg/mL (≈ 0.59 µM) | MIC (HI 30063): 4 µg/mL (≈ 9.45 µM)
SMILES: CC(=O)NC[C@H]1CN(c2ccc(-c3nnc(CCC[N+](=O)[O-])s3)c(F)c2)C(=O)O1 [Example 54, (S)-N-[[3-[3-Fluoro-4-[5-(3-nitropropyl)-1,3,4-thiadiazol-2-yl]phenyl]-2-oxo-5-oxazolidinyl]methyl]acetamide]

MIC (S. Aureus UC ® 9213): 1 µg/mL (≈ 2.85 µM) | MIC (S. pneumoniae UC ® 9912): < 0.125 µg/mL | MIC (HI 30063): 2 µg/mL (≈ 5.71 µM)
SMILES: CC(=O)NC[C@H]1CN(c2ccc(-c3nnc(C)s3)c(F)c2)C(=O)O1 [Example 3, (S)-N-[[3-[3-Fluoro-4-(5-methyl-1,3,4-thiadiazol-2-yl)phenyl]-2-oxo-5-oxazolidinyl]methyl]acetamide]

MIC (S. Aureus UC ® 9213): 1 µg/mL (≈ 2.74 µM) | MIC (S. pneumoniae UC ® 9912): < 0.125 µg/mL | MIC (HI 30063): 4 µg/mL (≈ 11 µM)
SMILES: CCC(=O)NC[C@H]1CN(c2ccc(-c3nnc(C)s3)c(F)c2)C(=O)O1 [Example 32, (S)-N-[[3-[3-Fluoro-4-(5-methyl-1,3,4-thiadiazol-2-yl)phenyl]-2-oxo-5-oxazolidinyl]methyl]propanamide]

MIC (S. Aureus UC ® 9213): 1 µg/mL (≈ 2.54 µM) | MIC (S. pneumoniae UC ® 9912): < 0.125 µg/mL | MIC (HI 30063): 2 µg/mL (≈ 5.08 µM)
SMILES: CC(=O)NC[C@H]1CN(c2ccc(-c3nnc(CC=NO)s3)c(F)c2)C(=O)O1 [Example 64, (S)-N-[[3-[3-Fluoro-4-[5-[2-(hydroxyimino)ethyl]-1,3,4-thiadiazol-2-yl]phenyl]-2-oxo-5-oxazolidinyl]methyl]acetamide]

MIC (S. Aureus UC ® 9213): 0.5 µg/mL (≈ 1.28 µM) | MIC (S. pneumoniae UC ® 9912): < 0.125 µg/mL | MIC (HI 30063): 2 µg/mL (≈ 5.14 µM)
SMILES: CC(=O)NC[C@H]1CN(c2ccc(-c3nnc(CCC#N)s3)c(F)c2)C(=O)O1 [Example 20, (S)-N-[[3-[4-[5-(2-Cyanoethyl)-1,3,4-thiadiazol-2-yl]-3-fluorophenyl]-2-oxo-5-oxazolidinyl]methyl]acetamide]

MIC (S. Aureus UC ® 9213): 0.5 µg/mL (≈ 1.32 µM) | MIC (S. pneumoniae UC ® 9912): 0.25 µg/mL (≈ 0.659 µM)
SMILES: CC(=O)NC[C@H]1CN(c2ccc(-c3nnc(C(N)=O)s3)c(F)c2)C(=O)O1 [Example 2, (S)-5-[4-[5-[(Acetylamino)methyl]-2-oxo-3-oxazolidinyl]-2-fluorophenyl]-1,3,4-thiadiazole-2-carboxamide]

MIC (S. Aureus UC ® 9213): 0.25 µg/mL (≈ 0.707 µM) | MIC (S. pneumoniae UC ® 9912): < 0.125 µg/mL | MIC (HI 30063): 1 µg/mL (≈ 2.83 µM)
SMILES: NC(=S)NC[C@H]1CN(c2ccc(-c3nncs3)c(F)c2)C(=O)O1 [Example 75, (S)-[[3-[3-Fluoro-4-(1,3,4-thiadiazol-2-yl)phenyl]-2-oxo-5-oxazolidinyl]methyl]thiourea]
